Experimental data: PMC9841523 (Journal of Medicinal Chemistry, 2022)
pIC50: −log10 of the molar value. Read-outs that look alike come from different tables or passages of the source.

Experiments:
MAP3K15, MAP3K5, MAP3K6 = assay: KiNativ kinase panel; format: cell-based, human; settings: 1 μM; MCF-7 Cells; Lys1; IAIKEIPER
MST4, YSK1 = assay: KiNativ kinase panel; format: cell-based, human; settings: 1 μM, MCF-7 Cells, Lys2
ITPK1 = target: T1, ITPK1 (Homo sapiens, UniProt Q13572); assay: KiNativ kinase panel; format: cell-based; settings: 1 μM, MCF-7 Cells, ATP
T1 construct: endogenous in cells; host or cells: MCF7
T1 sequence (Q13572 1-414): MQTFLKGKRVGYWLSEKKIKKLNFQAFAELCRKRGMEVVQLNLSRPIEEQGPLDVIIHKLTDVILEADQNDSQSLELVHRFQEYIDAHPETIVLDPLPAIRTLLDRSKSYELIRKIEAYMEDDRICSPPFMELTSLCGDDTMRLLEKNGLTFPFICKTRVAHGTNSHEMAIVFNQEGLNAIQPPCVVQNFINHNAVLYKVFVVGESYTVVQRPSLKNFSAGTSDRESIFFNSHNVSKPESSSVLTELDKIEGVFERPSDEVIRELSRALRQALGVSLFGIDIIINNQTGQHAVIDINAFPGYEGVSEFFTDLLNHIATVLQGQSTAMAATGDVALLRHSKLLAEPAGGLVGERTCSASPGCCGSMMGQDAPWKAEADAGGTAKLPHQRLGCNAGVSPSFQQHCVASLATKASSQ

[1] = tested on: CaMK2a, CaMK2b, CaMK2d, CaMK2g; assay: KiNativ kinase panel; format: cell-based; settings: 1 μM, MCF-7 Cells, Lys2
MARK2, MARK3 = assay: KiNativ kinase panel; format: cell-based, human; settings: 1 μM, MCF-7 Cells, Lys2
NDR1, NDR2 = assay: KiNativ kinase panel; format: cell-based, human; settings: 1 μM; MCF-7 Cells; Activation Loop; LSDFGLCTGLKK
MET = target: T2, MET (Homo sapiens, UniProt P08581); assay: KiNativ kinase panel; format: cell-based; settings: 1 μM; MCF-7 Cells; Activation Loop; TGAKLPVK
T2 construct: purchased ActivX Biosciences (KiNativ)

AKT2, AKT3 = assay: KiNativ kinase panel; format: cell-based, human; settings: 1 μM, MCF-7 Cells, ATP Loop
MER, TYRO3 = assay: KiNativ kinase panel; format: cell-based, human; settings: 1 μM; MCF-7 Cells; Activation Loop; KIYSGDYYR
MASTL = target: T3, MASTL (Homo sapiens, UniProt Q96GX5); assay: KiNativ kinase panel; format: cell-based; settings: 1 μM, MCF-7 Cells
T3 construct: purchased ActivX Biosciences (KiNativ)
T3 sequence (Q96GX5 1-879): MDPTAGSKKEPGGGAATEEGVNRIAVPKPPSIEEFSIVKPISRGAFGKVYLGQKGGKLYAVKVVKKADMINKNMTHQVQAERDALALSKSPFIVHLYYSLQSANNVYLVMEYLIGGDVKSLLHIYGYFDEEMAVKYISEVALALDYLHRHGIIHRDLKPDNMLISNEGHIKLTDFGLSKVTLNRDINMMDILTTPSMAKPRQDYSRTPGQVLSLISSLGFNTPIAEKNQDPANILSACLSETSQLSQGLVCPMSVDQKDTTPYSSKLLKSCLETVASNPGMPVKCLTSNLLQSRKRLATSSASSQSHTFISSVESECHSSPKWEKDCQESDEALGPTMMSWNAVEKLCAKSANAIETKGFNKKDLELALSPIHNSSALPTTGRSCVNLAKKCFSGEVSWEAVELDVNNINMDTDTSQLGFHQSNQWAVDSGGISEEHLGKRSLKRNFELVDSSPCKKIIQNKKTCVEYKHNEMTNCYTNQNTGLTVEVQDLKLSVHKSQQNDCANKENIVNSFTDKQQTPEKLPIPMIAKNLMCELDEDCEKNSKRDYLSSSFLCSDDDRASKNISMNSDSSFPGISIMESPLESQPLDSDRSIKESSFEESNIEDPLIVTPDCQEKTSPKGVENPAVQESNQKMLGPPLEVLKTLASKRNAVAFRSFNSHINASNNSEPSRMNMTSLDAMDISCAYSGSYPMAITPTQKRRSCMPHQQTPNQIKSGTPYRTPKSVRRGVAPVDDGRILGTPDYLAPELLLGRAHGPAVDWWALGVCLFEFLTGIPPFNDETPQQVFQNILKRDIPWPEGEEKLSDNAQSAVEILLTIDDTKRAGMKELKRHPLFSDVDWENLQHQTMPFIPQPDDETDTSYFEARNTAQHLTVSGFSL

MST3, MST4, YSK1 = assay: KiNativ kinase panel; format: cell-based, human; settings: 1 μM, MCF-7 Cells, Activation Loop
MLK3 = target: T4, MLK3 (Homo sapiens, UniProt Q16584); assay: KiNativ kinase panel; format: cell-based; settings: 1 μM; MCF-7 Cells; Lys2; DLKSNNILLLQPIESDDMEHK
T4 construct: purchased ActivX Biosciences (KiNativ)

JAK1 domain1 = target: T5, JAK1 domain1 (Homo sapiens, UniProt P23458); assay: KiNativ kinase panel; format: cell-based; settings: 1 μM; MCF-7 Cells; Activation Loop; QLASALSYLEDKDLVHGNVCTKNLLLAR
T5 construct: MCF7 cells were exposed to; endogenous in cells; host or cells: MCF7

DNA-PK = target: T6, DNA-PK (Homo sapiens, UniProt P78527); assay: Nanosyn Lipid Kinase screen; format: biochemical
T6 construct: purchased Promega V4106
Procedure: complex formation) controls.
Nanosyn Lipid Kinase screen. Biochemical inhibition of lipid and related protein kinases was determined by Nanosyn (Santa Clara, CA). […]
ADP formation using ADP-Glo (Promega). Kinase reactions were assembled in 384 well plates in a total volume of 20 µL as follows. […]
Compounds were serially pre-diluted in DMSO and added to the protein samples by acoustic dispensing (200 nL, Labcyte Echo). Concentration of DMSO was equalized to 1% in all samples. All test compounds were tested at 12 concentrations, 3x dilution intervals. The control samples (0%-inhibition in the absence of inhibitor, DMSO only) and 100%-inhibition (in the absence of enzyme) were assembled in replicates of four and were used to calculate %-inhibition in the presence of compounds. […]

p38d, p38g = assay: KiNativ kinase panel; format: cell-based, human; settings: 1 μM, MCF-7 Cells, Lys2
[2] = ESIFFNSHNVSKPESSSVLTELDKIEGVFERPSDEVIR

T2 sequence (P08581 25-1390): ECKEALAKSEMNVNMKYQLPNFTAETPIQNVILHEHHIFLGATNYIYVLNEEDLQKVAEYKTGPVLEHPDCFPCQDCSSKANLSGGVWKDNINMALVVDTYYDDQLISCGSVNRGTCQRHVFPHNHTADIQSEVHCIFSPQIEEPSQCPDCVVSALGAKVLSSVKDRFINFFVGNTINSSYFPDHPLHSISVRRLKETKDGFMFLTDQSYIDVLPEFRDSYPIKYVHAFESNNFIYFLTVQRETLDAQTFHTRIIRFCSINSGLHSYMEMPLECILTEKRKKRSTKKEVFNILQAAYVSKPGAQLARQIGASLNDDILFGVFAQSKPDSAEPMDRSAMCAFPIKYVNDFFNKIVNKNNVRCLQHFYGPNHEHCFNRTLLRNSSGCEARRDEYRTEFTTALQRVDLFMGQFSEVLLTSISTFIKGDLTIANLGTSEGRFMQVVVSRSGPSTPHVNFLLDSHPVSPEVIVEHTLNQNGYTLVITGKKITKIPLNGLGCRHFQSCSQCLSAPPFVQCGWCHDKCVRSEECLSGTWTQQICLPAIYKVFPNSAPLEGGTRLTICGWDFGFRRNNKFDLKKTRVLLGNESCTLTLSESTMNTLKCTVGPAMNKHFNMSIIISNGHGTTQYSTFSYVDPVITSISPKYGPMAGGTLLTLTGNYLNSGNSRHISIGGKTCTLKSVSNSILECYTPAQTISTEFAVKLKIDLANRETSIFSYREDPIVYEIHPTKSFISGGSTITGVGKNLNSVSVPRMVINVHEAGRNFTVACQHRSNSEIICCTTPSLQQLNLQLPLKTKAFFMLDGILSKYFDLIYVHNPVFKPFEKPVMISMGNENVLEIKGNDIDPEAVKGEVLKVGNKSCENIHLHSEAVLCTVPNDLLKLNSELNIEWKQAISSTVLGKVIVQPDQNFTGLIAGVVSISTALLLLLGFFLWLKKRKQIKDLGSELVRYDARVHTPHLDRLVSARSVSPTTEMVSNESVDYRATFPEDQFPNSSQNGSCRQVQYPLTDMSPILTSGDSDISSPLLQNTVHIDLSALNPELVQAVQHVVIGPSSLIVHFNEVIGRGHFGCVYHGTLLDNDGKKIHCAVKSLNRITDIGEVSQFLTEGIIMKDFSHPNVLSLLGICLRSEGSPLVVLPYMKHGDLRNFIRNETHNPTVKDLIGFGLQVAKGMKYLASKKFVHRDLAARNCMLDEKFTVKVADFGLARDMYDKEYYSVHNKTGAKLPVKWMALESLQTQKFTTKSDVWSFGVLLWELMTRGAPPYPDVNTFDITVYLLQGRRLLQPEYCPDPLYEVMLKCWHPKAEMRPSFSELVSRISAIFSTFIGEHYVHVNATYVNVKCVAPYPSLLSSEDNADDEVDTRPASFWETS
T4 sequence (Q16584 whole entry): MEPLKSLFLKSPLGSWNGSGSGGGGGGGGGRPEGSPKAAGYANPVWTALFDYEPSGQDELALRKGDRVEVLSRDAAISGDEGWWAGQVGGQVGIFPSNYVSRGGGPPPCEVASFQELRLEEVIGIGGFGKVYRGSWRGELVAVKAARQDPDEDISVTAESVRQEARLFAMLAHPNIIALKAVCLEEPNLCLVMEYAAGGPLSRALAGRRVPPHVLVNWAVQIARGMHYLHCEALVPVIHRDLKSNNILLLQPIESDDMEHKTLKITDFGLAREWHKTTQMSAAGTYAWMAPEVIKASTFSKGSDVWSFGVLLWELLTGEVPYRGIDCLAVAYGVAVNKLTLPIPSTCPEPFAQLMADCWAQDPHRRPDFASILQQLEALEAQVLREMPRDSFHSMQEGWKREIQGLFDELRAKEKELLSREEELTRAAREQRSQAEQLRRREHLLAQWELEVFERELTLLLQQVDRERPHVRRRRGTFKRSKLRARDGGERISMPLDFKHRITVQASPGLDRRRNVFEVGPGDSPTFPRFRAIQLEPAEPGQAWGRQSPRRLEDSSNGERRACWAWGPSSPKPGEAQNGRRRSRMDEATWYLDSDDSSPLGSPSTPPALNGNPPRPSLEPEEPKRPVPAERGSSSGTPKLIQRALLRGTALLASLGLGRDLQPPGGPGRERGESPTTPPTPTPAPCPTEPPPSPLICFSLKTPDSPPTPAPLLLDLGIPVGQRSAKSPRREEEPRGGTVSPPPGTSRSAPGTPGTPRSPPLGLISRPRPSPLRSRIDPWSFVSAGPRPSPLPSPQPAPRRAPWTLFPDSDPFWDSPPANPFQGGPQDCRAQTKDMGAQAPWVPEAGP
T5 sequence (P23458 whole entry, the tested form may be a part): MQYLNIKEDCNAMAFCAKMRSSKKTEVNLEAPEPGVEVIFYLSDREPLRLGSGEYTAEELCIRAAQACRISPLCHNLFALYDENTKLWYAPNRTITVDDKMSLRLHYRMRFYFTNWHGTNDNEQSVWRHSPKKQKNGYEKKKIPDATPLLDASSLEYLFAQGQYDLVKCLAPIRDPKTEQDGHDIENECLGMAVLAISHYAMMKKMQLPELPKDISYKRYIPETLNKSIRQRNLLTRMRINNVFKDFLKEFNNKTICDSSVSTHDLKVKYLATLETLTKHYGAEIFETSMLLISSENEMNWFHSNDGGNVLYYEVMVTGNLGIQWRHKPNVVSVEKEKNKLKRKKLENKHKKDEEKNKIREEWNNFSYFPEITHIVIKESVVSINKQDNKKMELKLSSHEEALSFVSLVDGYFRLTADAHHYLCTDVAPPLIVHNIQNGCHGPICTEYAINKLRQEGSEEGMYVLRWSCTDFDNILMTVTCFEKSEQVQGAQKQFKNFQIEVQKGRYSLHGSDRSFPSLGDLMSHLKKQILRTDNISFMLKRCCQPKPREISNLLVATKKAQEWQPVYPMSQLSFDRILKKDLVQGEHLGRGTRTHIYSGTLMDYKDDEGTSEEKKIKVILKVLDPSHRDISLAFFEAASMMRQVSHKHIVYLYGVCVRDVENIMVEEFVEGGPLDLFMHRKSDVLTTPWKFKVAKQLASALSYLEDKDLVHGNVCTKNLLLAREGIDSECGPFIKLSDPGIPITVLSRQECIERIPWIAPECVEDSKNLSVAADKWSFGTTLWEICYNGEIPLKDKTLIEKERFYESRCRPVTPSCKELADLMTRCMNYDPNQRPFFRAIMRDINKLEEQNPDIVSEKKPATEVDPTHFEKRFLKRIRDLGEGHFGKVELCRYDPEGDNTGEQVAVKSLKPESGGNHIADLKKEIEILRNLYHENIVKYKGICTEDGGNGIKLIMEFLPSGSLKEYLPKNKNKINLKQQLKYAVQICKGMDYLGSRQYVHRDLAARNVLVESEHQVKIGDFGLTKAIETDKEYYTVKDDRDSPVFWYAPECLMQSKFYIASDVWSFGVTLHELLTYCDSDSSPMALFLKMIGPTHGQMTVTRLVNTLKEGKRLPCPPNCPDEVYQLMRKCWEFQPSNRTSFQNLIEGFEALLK

CO[C@H]1C[C@@H]2CC[C@@H](C)[C@@](O)(O2)C(=O)C(=O)N2CCCC[C@H]2C(=O)O[C@H]([C@H](C)C[C@@H]2CC[C@@H](OC(=O)NCCOCCOCCOCCOCCOCCOCCOCCOCCC(=O)N3CCc4cc(Cn5nc(-c6ccc7oc(N)nc7c6)c6c(N)ncnc65)ccc4C3)[C@H](OC)C2)C[C@@H](O)[C@H](C)/C=C(\C)[C@@H](O)[C@@H](OC)C(=O)[C@H](C)C[C@H](C)/C=C/C=C/C=C/1C [compound 38]
KiNativ Kinase Panel Data (MAP3K15, MAP3K5, MAP3K6): 24.5
KiNativ Kinase Panel Data (MST4, YSK1; […]): 10.5
KiNativ Kinase Panel Data (ITPK1; [2]): 6.5
KiNativ Kinase Panel Data (ITPK1; […]): 22.4
KiNativ Kinase Panel Data ([1]; […]): 26.2
KiNativ Kinase Panel Data (MARK2, MARK3; […]): -0.4
KiNativ Kinase Panel Data (NDR1, NDR2): 25.0
KiNativ Kinase Panel Data (MET): 3.9
KiNativ Kinase Panel Data (AKT2, AKT3; […]): -13.5
KiNativ Kinase Panel Data (MER, TYRO3): -0.7
KiNativ Kinase Panel Data (MASTL; ATP Loop, GAFGKVYLGQK): 4.3
KiNativ Kinase Panel Data (MASTL; Lys1, LYAVKVVK): 17.4
KiNativ Kinase Panel Data (MST3, MST4, YSK1; […]): 12.4
KiNativ Kinase Panel Data (MLK3): 2.0
KiNativ Kinase Panel Data (JAK1 domain1): 0.8
pIC50 (DNA-PK): < 6.00
KiNativ Kinase Panel Data (p38d, p38g; […]): -3.7

CO[C@H]1C[C@@H]2CC[C@@H](C)[C@@](O)(O2)C(=O)C(=O)N2CCCC[C@H]2C(=O)O[C@H]([C@H](C)C[C@@H]2CC[C@@H](OC(=O)NCCOCCOCCOCCOCCOCCOCCOCCOCCC(=O)NCCS(=O)(=O)c3ccc(C(=O)N4CCOc5ccc(-c6ccc(N)nc6)cc5C4)c(C)c3F)[C@H](OC)C2)C[C@@H](O)[C@H](C)/C=C(\C)[C@@H](O)[C@@H](OC)C(=O)[C@H](C)C[C@H](C)/C=C/C=C/C=C/1C [compound 40]
KiNativ Kinase Panel Data (MAP3K15, MAP3K5, MAP3K6): -4.5
KiNativ Kinase Panel Data (MST4, YSK1; DIKAANVLLSEQGDVK): -10.1
KiNativ Kinase Panel Data (ITPK1; [2]): -9.6
KiNativ Kinase Panel Data (ITPK1; NFSAGTSDRESIFFNSHNVSKPESSSVLTELDKIEGVFERPSDEVIR): -12.4
KiNativ Kinase Panel Data ([1]; DLKPENLLLASK): -30.6
KiNativ Kinase Panel Data (MARK2, MARK3; DLKAENLLLDADMNIK): 15.7
KiNativ Kinase Panel Data (NDR1, NDR2): -18.5
KiNativ Kinase Panel Data (MET): 6.3
KiNativ Kinase Panel Data (AKT2, AKT3; GTFGKVILVR): -101.1
KiNativ Kinase Panel Data (MER, TYRO3): 7.1
KiNativ Kinase Panel Data (MASTL; Lys1, LYAVKVVK): -10.0
KiNativ Kinase Panel Data (MST3, MST4, YSK1; LADFGVAGQLTDTQIKR): 20.4
KiNativ Kinase Panel Data (MLK3): -12.3
KiNativ Kinase Panel Data (JAK1 domain1): -1.7
pIC50 (DNA-PK; Nanosyn, with FKBP12): < 6.00
KiNativ Kinase Panel Data (p38d, p38g; DLKPGNLAVNEDCELK): -28.8
